Measured values published in patent publication US20150329864A1, “DESIGN OF OLIGONUCLEOTIDE ANALOGS AS THERAPEUTIC AGENTS” (SPRING BANK PHARMACEUTICALS, INC., priority 2010, published 2015).

Experiments:
hepatitis B virus (HBV) = test: Effect of i.p. administration on hepatitis B virus in transgenic mice; type: in vivo
Protocol: Compound 5 was evaluated in transgenic mice expressing hepatitis B virus (HBV). […] Its activity was also similar to the adefovir dipivoxil (ADV) anti-HBV activity; however, the two compounds seemed to suppress different HBV DNA species. […] In contrast, Compound 5 appeared to indiscriminately remose all HBV DNA species, including the bands typically left by ADV, which may reflect a different mechanism of action other than classical chain termination. Serum HBe, liver HBs, and HBc were not affected by Compound 5 treatment, which is consistent in transgenic mice with compounds that block viral synthesis “downstream” from mRNA synthesis, such as blockage of polymerase activities. A minimal effective dosage was determined to be between 1.6-0.5 mg/kg/day, which was similar to ADV minimal effective dosage of 1.0 mg/kg/day (Table 8).

macrophages = type: cell-based
[1] = Cytotoxicity by neutral red dye uptake in HCV replicon cultures; type: cell-based; conditions: human, AVA5 HCV replicon cell line (sub-genomic CON1, genotype 1b); parallel plates, 3-day assay; read-out: CC50, neutral red dye uptake
Protocol: Antiviral activity against HCV was assessed in a 3-day assay (Okuse, et al., 2005; Antiviral. Res. 65:23; Korba, et al., 2008, Antiviral Res. 77:56) using the stably-expressing HCV replicon cell line, AVA5 (sub-genomic (CON1), genotype 1b) (Blight, et al., 2000; Science 290:1972) maintained as sub-confluent cultures on 96-well plates. Antiviral activity was determined by blot hybridization analysis of intracellular HCV RNA (normalized to the level of cellular B-actin RNA in each culture sample). Cytotoxicity was assessed by neutral red dye uptake in cultures maintained in parallel plates.
EC50, EC90, and CC50 values were calculated by linear regression analysis (MS EXCEL®, QuattroPro®) using data combined from all treated cultures Korba & Gerin, 1992, Antivir. Res. 19:55; Okuse, et al., 2005, Antivir. Res. 65:23). […]
Combination treatments are conducted as previously described. Briefly, two agents were mixed together at a pre-determined concentration ratio. […] Analysis of drug interactions in the combination studies was determined by the use of the CALCUSYN program (Biosoft, Inc., Cambridge, United Kingdom). […]

HCV = test: Combination studies against HCV in replicon assays; type: cell-based; conditions: Hepatitis C virus, read-out: EC50 (uM), single drug
HBV-3TC-R4 LMMV = type: cell-based; conditions: Hepatitis B virus
[2] = 100 mg/kg/d i.p. once daily 14 days, group listed with C:E:S vehicle
[3] = 100 mg/kg/d i.p. once daily 14 days, group listed with saline placebo

Structure (SMILES) | Liver HBV DNA (mean pg viral/μg cellular DNA ± stdev) (hepatitis B virus (HBV); [2]) | Liver HBV RNA (mean relative units ± stdev) (hepatitis B virus (HBV); [2]) [relative units] | Liver HBeAg (mean stained cells/100 × field ± stdev) (hepatitis B virus (HBV); [2]) [stained cells/100 × field] | Serum HBV DNA (mean log10 genome equivalents/mL serum ± stdev) (hepatitis B virus (HBV); [2]) | Serum HBeAg (mean ng/mL ± stdev) (hepatitis B virus (HBV); [2]) [ng/mL] | Serum HBsAg (mean ng/mL ± stdev) (hepatitis B virus (HBV); [2]) [ng/mL] | Liver HBV DNA (mean pg viral/μg cellular DNA ± stdev) (hepatitis B virus (HBV); [3]) | Serum HBV DNA (mean log10 genome equivalents/mL serum ± stdev) (hepatitis B virus (HBV); [3]) | effect on liver HBV DNA (hepatitis B virus (HBV); i.p. once daily 14 days, 100 mg/kg/day, saline or cremaphor:ethanol:saline vehicles) | effect on serum HBe, liver HBs, and HBc (hepatitis B virus (HBV); i.p. treatment) | induction of IL-2 (macrophages) | CC50 at 3 day [1] [µM] | EC50 (HCV) [µM] | EC50 (HBV-3TC-R4 LMMV) [µM] | EC90 (HBV-3TC-R4 LMMV) [µM]
CO[C@H]1C(OP(=O)(S)OC[C@H]2O[C@@H](n3cnc4c(N)ncnc43)CC2O)[C@@H](CO)O[C@H]1n1ccc(=O)[nH]c1=O (stereo partly drawn) [Compound 5, 3-dApsU2′-OMe] | 1.7 ± 1.5 (9) pg viral/μg cellular DNA | 1.7 ± 0.3 | 24 ± 15 | 5.4 ± 0.6 (7) log10 genome equivalents/mL serum | 1241 ± 279 | 28 ± 15 | 0.3 ± 0.4 (8) pg viral/μg cellular DNA | 5.0 ± 0.3 (8) log10 genome equivalents/mL serum | significantly reduced liver HBV DNA | not affected | showed induction of IL-2 | – | – | – | –
CO[C@H]1C(OP(=O)(OC[C@H]2O[C@@H](n3cnc4c(N)ncnc43)CC2O)SCOC(=O)OC(C)C)[C@@H](CO)O[C@H]1n1ccc(=O)[nH]c1=O (stereo partly drawn) [Compound 6k] | – | – | – | – | – | – | – | – | – | – | – | > 100 | 1.5 to 2.3 | 3.1 | 9.3
